According to PMC6321233, “Cysteines and Disulfide-Bridged Macrocyclic Mimics of Teixobactin Analogues and Their Antibacterial Activity Evaluation against Methicillin-Resistant Staphylococcus Aureus (MRSA)” (Pharmaceutics, 2018):
In brackets after ≈: the same amount, converted by molar mass. Where two headings read alike, the source gives them in different places.

Legend:
[1] = tested on: S. aureus ATCC 29213; test: MIC, broth microdilution, Methicillin-sensitive S. aureus ATCC 29213; assay type: cell-based, Staphylococcus aureus; conditions: Mueller Hinton broth, 37 °C, 24 h, peptides in DMSO with 0.002% polysorbate 80, 128-0.25 µg/mL two-fold dilutions, no visible growth, runs in triplicate
Experimental: (§1) For minimum inhibitory concentration (MIC) assays, all peptides were dissolved in DMSO containing 0.002% polysorbate 80. Bacteria was grown in Mueller Hinton broth (Oxoid) in triplicate. All incubations were at 37 °C. Dilutions were carried out in triplicate, and 100 µL of autoclaved Mueller Hinton broth was added to wells 2–11 in a 96-well plate. 200 µL of the peptide was added to well one at a concentration of 128 µg/mL. 100 µL of peptide in well one was taken up and pipetted into well two. The mixture was then mixed via pipetting before 100 µL was taken up and pipetted into well three. This process was repeated up to well 10. Once the peptide was added to well 10, 100 µL was taken up and then discarded, ensuring that well 11 had no peptide present. Thus, the concentrations (in µg/mL) were: 128, 64, 32, 16, 8, 4, 2, 1, 0.5, 0.25, and 0 (no peptide present). Each well was then inoculated with 100 µL of bacteria that had been diluted to an OD 600 nm of 0.1. This was repeated three times. The 96-well plates were then incubated at 37 °C for 24 h. […]
(§2) Antibacterial activity of the teixobactin analogues was assessed against Methicillin-resistant Staphylococcus aureus (MRSA ATCC 33591, MRSA ATCC […]) and Methicillin-sensitive Staphylococcus aureus. The minimum inhibitory concentration was measured using the broth microdiluation method (see Experimental Section 2.4). […]

[2] = tested on: MRSA ATCC 700699; test: MIC, broth microdilution, MRSA ATCC 700699; assay type: cell-based, Staphylococcus aureus; conditions: Mueller Hinton broth, 37 °C, 24 h, peptides in DMSO with 0.002% polysorbate 80, 128-0.25 µg/mL two-fold dilutions, lowest concentration with no visible growth, runs in triplicate
Experimental: as §1, §2

[3] = tested on: MRSA; conditions: introduction, strain not named; cited from earlier work
Description: Brimble et al. have also reported on the synthesis and antibacterial activity of teixobactin analogues by replacing L-allo-enduracididine with isosteres. Furthermore, teixobactin analogues with lipid tails were reported by Jamieson et al ...

[4] = tested on: S. aureus ATCC 29213; conditions: reference peptide marked with superscript 12 in Table 1; cited from earlier work
Description: MIC: Minimum Inhibitory Concentration in µg/mL; all the MIC runs in triplicate. (-) = Not evaluated. | column: S. aureus ATCC 29213

[5] = tested on: MRSA ATCC 700699; conditions: reference peptide marked with superscript 12 in Table 1; cited from earlier work
Description: MIC: Minimum Inhibitory Concentration in µg/mL; all the MIC runs in triplicate. (-) = Not evaluated. | column: MRSA ATCC 700699

[6] = tested on: MRSA ATCC 33591; conditions: reference peptides marked with superscript 12 in Table 1; cited from earlier work
Description: MIC: Minimum Inhibitory Concentration in µg/mL; all the MIC runs in triplicate. (-) = Not evaluated. | column: MRSA ATCC 33591

Molecule | activity against MRSA compared with teixobactin (in words) [3] | MIC: Minimum Inhibitory Concentration, MRSA ATCC 33591 [6] | further results
CN[C@H](CC(C)C)C(=O)N[C@H]1C(=O)N[C@@H](CC(N)=O)C(=O)N[C@H]2C(=O)N[C@H]3C(=O)N[C@H](C(=O)N[C@H](C(=O)O)c4cc(O)cc(O)c4-c4cc3ccc4O)[C@H](O)c3ccc(c(Cl)c3)Oc3cc2cc(c3O[C@@H]2O[C@H](CO)[C@@H](O)[C@H](O)[C@H]2O[C@H]2C[C@](C)(N)[C@H](O)[C@H](C)O2)Oc2ccc(cc2Cl)[C@H]1O [Vancomycin] | – | – | MIC: Minimum Inhibitory Concentration, S. aureus ATCC 29213 [1]: 4 µg/mL (≈ 2.76 µM); MIC: Minimum Inhibitory Concentration, MRSA ATCC 700699 [2]: 2 µg/mL (≈ 1.38 µM)
Ile10-teixobactin | to the same extent as teixobactin | – | –
Leu10-teixobactin | to the same extent as teixobactin | 0.25 µg/mL | MIC: Minimum Inhibitory Concentration, S. aureus ATCC 29213 [4]: 0.062 µg/mL; MIC: Minimum Inhibitory Concentration, MRSA ATCC 700699 [5]: 0.25 µg/mL
Teixobactin | – | 0.25 µg/mL | –
